Assay results published in US5284850A, “Terpene amino alcohols and medicinal uses thereof” (Kuraray Co., Ltd., priority 1985, dated 1994).
Structures can show the parent of a compound that is named as a salt.

Legend:
[1] = system: sensitized bronchial muscle; assay: Antiallergic action: inhibition of egg albumin-induced contraction of sensitized guinea pig bronchial muscle; assay type: tissue-based, guinea pigs of Hartley strain; details: Cavia porcellus; for inhibition at 10 µM: 10^-5 M; for inhibition at 1 µM: 10^-6 M; for inhibition at 0.1 µM: 10^-7 M; for inhibition at 100 µM: 10^-4 M; for inhibition at 0.01 µM: 10^-8 M
Protocol: Male guinea pigs of Hartley strain (body weight: about 250 g) were intraperitoneally or intramuscularly dosed with egg albumin (dose 100 mg/kg) and the same procedure was repeated after 3 days. After 3 to 4 weeks, the guinea pi-as were bled to death and the sensitized bronchial muscle was excised and cut into 1.5 mm thick rings. Three rings were joined to prepare a specimen. The specimen was suspended in a tissue bath and a load of 1 g was applied. […] After stabilization of the specimen (after about 1 hour), histamine hydrochloride was added to the bath at a final concentration of 10^-5 M. The contraction curve was recorded. After the contraction had been stabilized, the specimen was washed with 3 portions of Ringer's solution at 10-minute intervals to stabilize the contraction (about 1 hour was required). Then, the test compound was added to the tissue bath and, after an interval of 10 minutes, 5 mg/ml of egg albumin was added. The contraction amplitude of the specimen was measured and the percent inhibition was calculated according to the following formula. [formula] A: Contraction amplitude of control group when egg albumin is added A': Contraction amplitude of dosage group when egg albumin is added
H: Contraction amplitude of control group when histamine hydrochloride is added
H': Contraction amplitude of dosage group when histamine hydrochloride is added

CO2 -treated mice = assay: Effect of improving the memories of amnesia models: CO2-induced amnesia, latency; assay type: in vivo, mice of ddK strain; details: 100 mg/kg oral
From the text: (§1) The mice were allowed to take feeds and water freely. The device comprised a dark chamber (a rectangular box 20 cm high, with a floor grid, 12 cm×15 cm) and a bright chamber (a box with an open top and a floor grid, 15 cm×15 cm, surrounded by rectangular walls, 15 cm^w ×20 cm^H, on four sides). The two chambers were in contact with each other sharing a common surface of 15 cm×20 cm which is provided with an opening through which the mouse could move freely. A stainless steel wire, which was connected to an electric impulse apparatus (manufactured by Nippon Medical and Chemical Instruments Co., Ltd.), was placed on the floor grid in the dark chamber. The bright chamber was illuminated with a 60 W electric bulb from a height of about 45 cm above the floor grid. Each mouse was placed on the floor grid in the bright chamber. Immediately after the mouse (four limbs) entered the dark chamber, it was loaded with an electroshock cf DC 50 V through the floor grid for about three seconds. Immediately after electroshock loading, the mouse was taken out from the dark chamber. […] Immediately after the acquisition trials, each mouse was left in a container filled with carbon dioxide for a period of 8 seconds to induce amnesia. A 5% aqueous suspension of each test compound in gum arabic solution was administered orally to mice immediately after carbon dioxide loading or to mice immediately after completion of the acquisition trials following scopolamine administration.

Scopolamine-treated mice = assay: Effect of improving the memories of amnesia models: scopolamine-induced amnesia, latency; assay type: in vivo, mice of ddK strain; details: 100 mg/kg oral; for improvement of shortening of latency induced by scopolamine (in words): compared with calcium hopantenate and pramiracetam
From the text: as §1, with “Scopolamine, […],” for “Immediately after the acquisition trials, each mouse”, “administered intraperitoneally to mice” for “left in a container filled with carbon dioxide for a period of 8 seconds”, “amnesia 20 minutes before initiation of acquisition trials.” for “amnesia.”

[2] = cited from earlier work; for side effects: prior art
mice of ddK strain = assay: KCN anoxia test; assay type: in vivo; details: for Number of survivals/Number of mice used / Survival rate (%): 100 mg/kg i.p., KCN 2.65 mg/kg i.v. after 30 minutes, 180 seconds; for Number of survivals/Number of mice used: control 0/8; for Survival rate (%): control 0, *P < 0.05, **P < 0.01; for anti-anoxic action (in words): KCN anoxia test
[3] = CO2-treated control 37.6 ± 19.6
[4] = scopolamine-treated control 54.6 ± 14.5
[5] = CO2-treated control 106.5 ± 24.9, normal mice 394.2 ± 84.0
[6] = scopolamine-treated control 83.5 ± 21.5, normal mice 394.2 ± 84.0

Row | Structure (SMILES) | inhibition at 10 µM [1] [%] | inhibition at 1 µM [1] [%] | inhibition at 0.1 µM [1] [%] | inhibition at 0.01 µM [1] [%] | other results
1 | CC(C)CCCC(C)CCCC(C)CCCC(C)(O)C(O)CN(C)CCOC(=O)c1cccnc1 (centres unmarked) [Compound (36), 2-[N-(2,3-dihydroxy-3,7,11,15-tetramethylhexadecyl)-N-methylamino]ethyl nicotinate] | 45 | 20 | 8 |  | memory activating action, CO2-induced amnesia (in words) (CO2 -treated mice): very significantly improved the shortening of latency induced by carbon dioxide; Latency, Mean ± S.E. (CO2 -treated mice; [3]): 216.0 ± 69.0 s; Latency, Mean ± S.E. (CO2 -treated mice; CO2-treated control 139.4 ± 27.5, normal mice 375.7 ± 74.9, *P < 0.05): 336.6 ± 77.8 s; improvement of shortening of latency induced by scopolamine (in words) (Scopolamine-treated mice): significantly improved the shortening of latency induced by scopolamine; Latency, Mean ± S.E. (Scopolamine-treated mice; [4]): 78.5 ± 26.9 s; Latency, Mean ± S.E. (Scopolamine-treated mice; scopolamine-treated control 166.7 ± 36.7, normal mice 375.7 ± 74.9, *P < 0.05): 336.2 ± 55.4 s
2 | CC(C)N(CCNC(=O)CN1CCCC1=O)C(C)C [Pramiracetam, pramiracetam, reference compound] |  |  |  |  | memory activating action, CO2-induced amnesia (in words) (CO2 -treated mice): failed to show a significant memory activating action; Latency, Mean ± S.E. (CO2 -treated mice; [5]): 175.8 ± 42.9 s; Latency, Mean ± S.E. (Scopolamine-treated mice; [6]): 98.1 ± 24.9 s
3 | O=C(O)c1cc(=O)c2c(OCC(O)COc3cccc4oc(C(=O)O)cc(=O)c34)cccc2o1 [Disodium cromoglicate, disodium cromoglicate, reference compound] | 21 | 7.8 | 0 | 0 | inhibition at 100 µM [1]: 32.1%; antiallergic effect (in words) ([2]; administered by the oral route): does not produce an antiallergic effect
4 | COc1ccc(/C=C/C(=O)Nc2ccccc2C(=O)O)cc1OC [Tranilast, tranilast, reference compound] | 54.8 | 21 | 0 | 0 | inhibition at 100 µM [1]: 32.1%; side effects [2]: cystitis-like symptoms such as hematuria, pyuria and dysuria
5 | CC(C)(CO)[C@@H](O)C(=O)NCCCC(=O)O [Calcium hopantenate, calcium hopantenate, reference compound] |  |  |  |  | memory activating action, CO2-induced amnesia (in words) (CO2 -treated mice): failed to show a significant memory activating action; Latency, Mean ± S.E. (CO2 -treated mice; [5]): 115.5 ± 40.6 s; Latency, Mean ± S.E. (Scopolamine-treated mice; [6]): 80.5 ± 17.2 s
6 | CN1CCC(=C2c3ccccc3CC(=O)c3sccc32)CC1 [Ketotifen, ketotifen] |  |  |  |  | time until antiallergic effect manifests itself ([2]; delayed effect type): 4-6 weeks; side effects [2]: drowsiness
7 | CC(C)CCCC(C)CCCC(C)CCCC(C)(O)C(O)CN(C)CCO (centres unmarked) [Compound (35)] | 27.1 | 85.5 | 35 | 22 | memory activating action, CO2-induced amnesia (in words) (CO2 -treated mice): showed a tendency to activate memory; Latency, Mean ± S.E. (CO2 -treated mice; CO2-treated control 138.2 ± 43.6, normal mice 382.4 ± 83.6): 258.4 ± 94.5 s; improvement of shortening of latency induced by scopolamine (in words) (Scopolamine-treated mice): significantly improved the shortening of latency induced by scopolamine; Latency, Mean ± S.E. (Scopolamine-treated mice; scopolamine-treated control 169.0 ± 53.0, normal mice 382.4 ± 83.6): 320.2 ± 66.2 s; Number of survivals/Number of mice used (mice of ddK strain): 8/9; Survival rate (%) (mice of ddK strain): 88.9%; anti-anoxic action (in words) (mice of ddK strain): significantly high anti-anoxic action
8 | CC(C)CCCC(C)NC(C)C (centres unmarked) [Iproheptine hydrochloride, iproheptine hydrochloride] |  |  |  |  | side effects [2]: drowsiness and nausea
9 | CC(C)CCCC(C)(O)C(N)CO (centres unmarked) [Compound (58)] | 0 | 0 |  |  | inhibition at 100 µM [1]: 21%
10 | CNCC(O)C(C)(O)CCCC(C)CCCC(C)C (centres unmarked) [Compound (12), 1-methylamino-3,7,11-trimethyl-2,3-dodecanediol] | 35.4 |  |  |  | inhibition at 100 µM [1]: 48.3%
11 | CC(C)CCCC(C)(O)C(O)CNCCO (centres unmarked) [Compound (10)] | 81.2 | 23.8 |  |  | 
12 | CC(C)CCCC(C)CCCC(C)(O)C(O)CN(C)C(=O)c1cccnc1 (centres unmarked) [Compound (15), N-methyl-N-(3,7,11-trimethyl-2,3-hydroxydodecyl)nicotinamide] | 67 | 93 |  |  | inhibition at 100 µM [1]: 72.5%; memory activating action, CO2-induced amnesia (in words) (CO2 -treated mice): showed a tendency to activate memory; Latency, Mean ± S.E. (CO2 -treated mice; [3]): 163.9 ± 49.1 s; Latency, Mean ± S.E. (Scopolamine-treated mice; [4]): 65.2 ± 20.2 s; Number of survivals/Number of mice used (mice of ddK strain): 7/9; Survival rate (%) (mice of ddK strain): 77.8%; anti-anoxic action (in words) (mice of ddK strain): significantly high anti-anoxic action
13 | CCN(CC)CC(O)C(C)(O)CCCC(C)CCCC(C)CCCC(C)C (centres unmarked) [(33)] | 47.9 | 32.6 |  |  | 
14 | CC(C)CCCC(C)CCCC(C)(O)C(CO)NCCO (centres unmarked) [Compound (67)] | 46 | 49 | 18 |  | 
15 | CC(C)=CCCC(C)(O)C(O)CN1CCCC1 (centres unmarked) [(3)] | 36.3 | 60 | 34.2 | 30.8 | 
16 | CCCCN(CCCC)CC(O)C(C)(O)CCCC(C)CCCC(C)CCCC(C)C (centres unmarked) [Compound (34)] | 65.2 | 33 | 3 |  | 
17 | CC(C)CCCC(C)CCCC(C)(O)C(O)CN1CCCC1 (centres unmarked) [Compound (38)] |  |  | 36.7 |  | 
18 | CC(C)CCCC(C)CCCC(C)CCCC(C)(O)C(CO)N(C)C (centres unmarked) [Compound (72)] | 51 | 60 | 24 | 9 | 
19 | CC(C)CCCC(C)CCCC(C)(O)C(CO)NC1CCN(Cc2ccccc2)CC1 (centres unmarked) [Compound (63)] |  | 55 | 45 | 11 | 
20 | CC(C)=CCCC(C)(O)C(O)CN(C)CCO (centres unmarked) [Compound (6)] | 48.2 | 28.6 |  |  | 
21 | CC(C)=CCCC(C)(O)C(O)CN(C)c1ccccc1 (centres unmarked) [(2)] | 30.1 | 19.9 |  |  | inhibition at 100 µM [1]: 58.7%
22 | CCCCN(CCCC)C(CO)C(C)(O)CCCC(C)C (centres unmarked) [Compound (59), 2-(dibutylamino)-3,7-dimethyl-1,3-octanediol] | 49 | 51 | 0 |  | 
23 | CC(C)=CCCC(C)(O)C(CO)N1CCCC1 (centres unmarked) [Compound (54)] | 54 | 63 | 33 | 20 | 
24 | CNCC(O)C(C)(O)CCCC(C)C (centres unmarked) [Compound (8)] | 37.8 |  |  |  | inhibition at 100 µM [1]: 52.6%
25 | CCCCN(CCCC)CC(O)C(C)(O)CCCC(C)C (centres unmarked) [Compound (9)] | 27.9 | 67.2 | 56 | 16 | 
